According to patent US11529391B2, “Reversing deficient hedgehog signaling restores deficient skeletal regeneration” (The Board of Trustees of the Leland Stanford Junior …, priority 2017, dated 2022):
“Also recorded” adds a separate entry of the source.

Tests used:
[1] = system: mSSCs and BCSPs; experiment: FACS count of mSSCs and BCSPs in calluses after Hh antagonism; assay type: in vivo, mouse; settings: post-fracture day 7 calluses of treated versus untreated WT mice
Description: (§1) To verify that Hh antagonism impairs fracture repair in vivo, we administered XL139 to WT mice via oral gavage immediately after injury and assessed healing femur strength at post-fracture week 4 using MST.
Isolation of skeletal progenitor cells. Uninjured femora and fractured femora were harvested at post-fracture days 3, 7, 10, 14, 21, and 28. Fracture calluses were dissected using microscopy. Tissues were crushed with mortar and pestle in collagenase buffer (2.2 mg/ml collagenase, DNase, 1000×1 M CaCl2, 100×p188, 50×1 M Hepes, m199 solvent), and heated to 37° C. for 10 min to activate collagenase. Each sample underwent 3 serial digestions at 37° C. for 25 minutes under gentle agitation. Dissociated cells were filtered through a 40 μm nylon mesh and washed in FACS buffer (2% fetal bovine serum in PBS). Each sample was pelleted at 200 g at 4° C. and resuspended in FACS buffer. Then, each sample was layered onto a histopaque gradient prior to centrifugation at 1400 rpm for 15 minutes at room temperature with zero acceleration. The cloudy interphase was aspirated, washed with FACS buffer, and centrifuged. The cells were stained with fluorochrome-conjugated antibodies against CD45, Ter119, Tie2, αv-integrin, Ly 51, CD105, Thy 1.1, and Thy 1.2 for purification by flow cytometry. Cells were sorted twice (once on “yield,” then on “purity”) to increase purity (BD FACS Aria).

[2] = system: post-fracture day 7 WT mSSCs; experiment: In vitro osteogenesis of mSSCs under Hh antagonism, alizarin red staining; assay type: cell-based, mouse; settings: post-fracture day 7 WT mSSCs treated in vitro
Excerpt: To investigate if Hh signaling is essential for mSSC-dependent osteogenesis, we antagonized Hh signaling in post-fracture day 7 WT mSSCs in vitro using XL139, a small molecule antagonist of Smo.
(§2) Cell culture. Cells were maintained in vitro in Minimum Essential Media (MEM) with 10% FBS and 1% penicillin-streptomycin (Penstrep) under 2% O2/7.5% CO2. Each plate was coated with 0.1% gelatin. Cultured cells were lifted using collagenase II buffer (Sigma-Aldrich). For mSSC colony forming assays, cells were cultured for 2 weeks and colonies were counted using phase microscopy. The cells were lifted for staining and analysis by FACS. Osteogenic differentiation medium consisted of Dulbecco's Modified Eagle Medium with 10% FBS, 100 μg/ml ascorbic acid, and 10 mM-glycerophosphate. mSSCs isolated from P3, WT, and db mice were maintained in either regular media (MEM-alpha medium with 10% FBS, 1% Penstrep) or regular media supplemented with Ihh (R&D, […]), Shh (R&D, 500 pg/mL), or PBS under 2% O2/7.5% CO2 conditions. After 7 days, cells were lifted for staining and analysis by FACS or for RNA extraction and qRT-PCR.

[3] = system: WT mice; experiment: Femoral fracture healing after Hh antagonism, Mechanical Strength Testing (MST); assay type: in vivo, mouse; settings: oral gavage immediately after injury, post-fracture week 4, versus untreated
Description: as §1
Femoral fractures. Ten-week old mice were anesthetized with aerosolized isoflurane. Analgesia was administered and the surgical site was prepared prior to skin incision. A medial parapatellar incision was created. The patella was dislocated laterally to expose the femoral condyles. The medullary cavity was reamed using a 25 to 23 G×⅝-inch regular bevel needle (BD) prior to insertion of an intramedullary pin of equal diameter into the medullary cavity. A transverse, middiaphyseal fracture was made using scissors. The pin remained in situ to provide relative stability during healing. The patella was relocated, muscles were reapproximated, and the skin was closed using a 6/0 nylon suture. Animals were radiographed to verify fracture alignment and assess fracture fixation. Animals with fracture displacement were excluded. Pin diameter was adjusted according to femoral cavity lumen diameter to minimize migration.
Mechanical Strength Testing (MST). MST was performed using a delaminator run by R.H. Dauskardt laboratory at Stanford University. […] The maximum load (N) to fracture was recorded (FIG. 9).

[4] = system: Ihh expression; experiment: qRT-PCR of Ihh expression in mSSC and BCSP cultures in supplemented media; assay type: cell-based, mouse
Description: To determine if high levels of glucose or TNFα could directly repress Hh expression in skeletal niches, we cultured FACS-sorted mSSCs and BCSPs from uninjured P3 WT femora in glucose-supplemented, TNFα-supplemented, or control media for 48 hours. […] Furthermore, neutralization of TNFα with anti-TNFα antibodies restored Ihh expression levels in mSSCs cultured in dbLR serum (FIG. 15).
as §2
Quantitative reverse transcription polymerase chain reaction (qRT-PCR). RNA was isolated from cells using the RNeasy Mini kit (Qiagen) as per manufacturer's instructions. Reverse transcription was performed and gene expression was examined by qRT-PCR using the Applied biosystems Prism 7900HT sequence detection system (Applied Biosystems) and SYBR Green PCR Master Mix (Applied Biosystems). All values were normalized using glyceraldehyde 3-phosphate dehydrogenase for mouse samples and using beta-actin for human samples. Specific primer sequences for genes of interest were obtained from PrimerBank.

**Q.** How did the “number of mSSCs and BCSPs” value [1] turn out when `CNCc1ccc(C)c(NC(=O)c2ccc(Nc3nc(-c4ccccc4)c4ccccc4n3)cc2)c1` [XL139] was run?
**A.** The value was “highly significant reduction”.

**Q.** And the “osteogenic potential of mSSCs (alizarin red staining)” value [2]?
**A.** The value was “dose-dependent reduction; also recorded: reduces”.

**Q.** What about the “healing femur strength (MST)” value [3] of the same compound?
**A.** The value was “reduced significantly”.

**Q.** How did the “dose dependence of repression of Ihh expression in BCSPs” value ([4]; BCSP-derived cultures from uninjured P3 mice) turn out when TNFα was run?
**A.** The value was “dose dependent; also recorded: dose-dependent”.

**Q.** And the “Ihh expression (qRT-PCR) in BCSP cultures” value ([4]; BCSPs from uninjured P3 WT femora, supplemented media 48 hours versus control media)?
**A.** The value was “significantly reduced; also recorded: reduces”.

**Q.** And the “Ihh expression (qRT-PCR) in mSSC cultures” value ([4]; mSSCs from uninjured P3 WT femora, supplemented media 48 hours versus control media)?
**A.** The value was “significantly reduced; also recorded: significantly diminishes”.
